The source of these data is patent US5086074A, “1-aminomethyl-1,2,3,4-tetrahydronaphthalenes” (Abbott Laboratories, priority 1990, dated 1992).

Counter-ions that a name gives are not always drawn.

For one assay, the system named is alpha-2-receptor. The assay is described as follows: Radioligand binding, alpha-2 adrenoceptor, rat cerebral cortices, [3H]-rauwolscine. The settings on record: ratio Ki alpha-1/Ki alpha-2. The procedure: (§1) The compounds were assessed for alpha-adrenergic receptor subtype selectivity by use of radioligand binding techniques as described previously (DeBernardis et.al. J. Med. Chem. 28, 1398 (1985)).
For the compound “5-Methoxy-1-(3-phenylpyrrolidino-1-methyl) indane hydrochloride [Example 152]”, the “alpha-2 - Selectivity Ki alpha-1/Ki alpha-2” value came out at 11.

A further assay deals with T1, alpha-1-receptor (Rattus norvegicus, UniProt P15823).
T1 construct: rat liver homogenates; from tissue; host or cells: rat liver homogenate
T1 sequence (P15823 1-515): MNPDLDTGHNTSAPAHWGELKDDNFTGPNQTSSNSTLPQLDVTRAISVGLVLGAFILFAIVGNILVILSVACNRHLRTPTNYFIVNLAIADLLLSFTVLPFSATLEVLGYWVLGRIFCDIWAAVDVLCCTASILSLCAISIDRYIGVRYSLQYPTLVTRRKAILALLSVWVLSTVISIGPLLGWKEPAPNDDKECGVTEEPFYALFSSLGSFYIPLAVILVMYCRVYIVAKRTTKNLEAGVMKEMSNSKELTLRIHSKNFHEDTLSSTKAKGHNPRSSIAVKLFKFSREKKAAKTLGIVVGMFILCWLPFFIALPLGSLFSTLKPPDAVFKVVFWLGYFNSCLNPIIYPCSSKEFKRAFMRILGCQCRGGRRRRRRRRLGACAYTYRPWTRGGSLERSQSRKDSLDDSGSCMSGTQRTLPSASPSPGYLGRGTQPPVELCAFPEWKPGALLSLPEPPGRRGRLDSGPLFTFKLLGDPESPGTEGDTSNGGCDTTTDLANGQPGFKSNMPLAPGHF
The assay is described as follows: Radioligand binding, alpha-1 adrenoceptor, rat liver homogenates, [3H]-prazosin.
Conditions: not given
The procedure: as §1
Take `COC(=O)[C@H]1[C@H]2C[C@H]3c4[nH]c5ccccc5c4CCN3C[C@H]2CC[C@@H]1O` [Rauwolscine, reference compound]: the affinity, expressed as Ki, was 392 nM.

The assay is the same for the next values; noted with them: rat liver homogenates, [3H]-prazosin; read-out: Ki alpha-1.
As to `COc1ccc2c(c1)CCCC2CN(C)CCc1cccn1C` (stereo not drawn) [Example 12, 1-((N-Methylamino)methyl-N-(2-(N-methyl-2-pyrrolyl)ethyl))-6-methoxy tetralin fumarate], the Ki (in general, the equilibrium dissociation constant of an inhibitor or competing ligand from its target) came to 1210 nM.
For `COc1ccc2c(c1)CCC2CN(C)CCc1cccs1` (stereo not drawn) [Example 37, 1-((N-Methylamino)methyl-N-(2-(2-thienyl)ethyl))-5-methoxy indane hydrochloride], the Ki worked out at 645 nM.
As to `COc1ccc2c(c1OC)CCCC2CN(C)CCc1cccs1` (stereo not drawn) [Example 86, 1-((N-Methylamino)methyl-N-(2-(2-thienyl)ethyl))-5,6-dimethoxy tetralin hydrochloride], the Ki worked out at 495 nM.
On to `COc1ccc2c(c1)CCCC2CN(C)CCc1cccc(F)c1` (stereo not drawn) [Example 6b, 1-((N-methylamino)methyl-N-(2-(m-fluorophenyl)ethyl))-6-methoxy tetralin hydrochloride], for which the Ki was found to be 1180 nM.
For `CCN(CCc1ccsc1)CC1CCCc2cc(OC)ccc21` (stereo not drawn) [Example 44, 1-((N-Ethylamino)methyl-N-(2-(3-thienyl)ethyl))-6-methoxy tetralin hydrochloride], the Ki stood at 590 nM.
Take `CN(CCc1cccc(F)c1)CC1CCCc2ccccc21` (stereo not drawn) [Example 70, 1-((N Methylamino)methyl-N-(2-(mfluorophenyl)ethyl))-tetralin hydrochloride]: the Ki was found to be 525 nM.
With `CN(CCc1cccs1)CC1CCCc2ccccc21` (stereo not drawn) [Example 22, 1-((N-Methylamino)methyl-N-(2-(2-thienyl)ethyl)) tetralin hydrochloride], the Ki was 695 nM.
For the compound `Cc1cc(O)c(O)c2c1C(CN(C)CCc1cccc(F)c1)CCC2` (stereo not drawn) [Example 34, 1-((N-Methylamino)methyl-N (2-(m-fluorophenyl)ethyl))-5,6-dihydroxy-8-methyl tetralin hydrobromide], the Ki was 330 nM.
Take `CN(CCc1cccs1)CC1CCCc2c1ccc(O)c2I` (stereo not drawn) [Example 115, 1-((N-Methylamino)methyl-N-(2-(2-thienyl)ethyl))-5-iodo-6-hydroxy tetralin hydrochloride]: the Ki amounted to 530 nM.
For the compound `CN(CCc1cccs1)CC1CCCc2c1ccc1c2OCCO1` (stereo not drawn) [Example 30, 1-((N Methylamino)methyl-N-(2-(2-thienyl)ethyl))-5,6-ethylenedioxy tetralin hydrochloride], the Ki is 470 nM.
Same read-out and setting: then `CN(CCc1cccs1)CC1CCCc2c1ccc1c2OCO1` (stereo not drawn) [Example 23, 1-((N-Methylamino)methyl-N-(2-(2-thienyl)ethyl))-5,6-methylenedioxy tetralin hydrochloride], with 445 nM.
In the case of `CCN(CCc1cccs1)CC1CCCc2cc(OC)ccc21` (stereo not drawn) [Example 41, 1-((N Ethylamino)methyl-N (2-(2-thienyl)ethyl))-6methoxy tetralin hydrochloride], the Ki was determined as 950 nM.
Take `COc1ccc2c(c1)CCCC2CN(C)CCc1ccsc1` (stereo not drawn) [Example 6d, 1-((N-methylamino)methyl-N-(2-(3-thienyl)ethyl))-6-methoxy tetralin hydrochloride]: the Ki amounted to 500 nM.
Same read-out and setting: then `COc1cc2c(cc1C)C(CN(C)CCc1ccco1)CCC2` (stereo not drawn) [Example 128, 1-((N-Methylamino)methyl-N-(2-(2-furyl)ethyl))6-methoxy-7-methyl tetralin hydrochloride], with 855 nM.
Consider `COc1ccc2c(c1)CCCC2CN(C)CCc1cccc(N)c1` (stereo not drawn) [Example 67, 1-((N-Methylamino)methyl-N-(2-(m-aminophenyl)ethyl))-6-methoxy tetralin dihydrochloride], for which the inhibition constant Ki amounted to 1170 nM.
Consider `CCN(CCc1ccco1)CC1CCCc2cc(OC)ccc21` (stereo not drawn) [Example 43, 1-((N-Ethylamino)methyl-N-(2-(2-furyl)ethyl))-6-methoxy tetralin hydrochloride], for which the Ki amounted to 1400 nM.
For `COc1ccc2c(c1)CCCC2CN(C)CCc1cccc(O)c1` (stereo not drawn) [Example 83, 1-((N-Methylamino)methyl-N-(2-(m-hydroxyphenyl)ethyl))-6-methoxy tetralin hydrochloride], the Ki is 955 nM.
The same measure, in the same setting: then `c1csc(C2CCN(CC3CCCc4c3ccc3c4OCO3)C2)c1` (stereo not drawn) [Example 144, 5,6-Methylenedioxy-1-(3-(2-thienyl)pyrrolidino-1-methyl) tetralin methanesulfonate], with 245 nM.
As for `CN(CCc1cccc(N)c1)CC1CCCc2cc(O)ccc21` (stereo not drawn) [Example 68, 1-((N-Methylamino)methyl N-(2-(m-aminophenyl)ethyl))-6-hydroxy tetralin dihydrobromide], the Ki is 1170 nM.
On to `CN(CCc1cccc(F)c1)CC1CCCc2c1ccc1c2OCO1` (stereo not drawn) [Example 166, 1-((N-Methylamino)methyl-N (2-m-fluorophenethyl))-5,6-methylenedioxy tetralin methanesulfonate], for which the Ki was found to be 603 nM.
Same read-out and setting: then `CCCN(CCc1cccs1)CC1CCCc2cc(OC)ccc21` (stereo not drawn) [Example 58, 1-((N-Propylamino)methyl)-N-(2-(2-thienyl)ethyl))-6-methoxy tetralin hydrochloride], with 1830 nM.
The same measure, in the same setting: then `CN(CCc1cccs1)CC1CCCc2cc(O)ccc21` (stereo not drawn) [Example 7, 1-((N-Methylamino)methyl N-(2-(2-thienyl)ethyl)) 6-hydroxy tetralin hydrochloride], with 565 nM; and `CN(CCc1cccc(O)c1)CC1CCCc2cc(O)ccc21` (stereo not drawn) [Example 82, 1-((N-Methylamino)methyl-N-(2-(m-hydroxyphenyl)ethyl))-6-hydroxy tetralin hydrochloride], with 495 nM.
Still for that read-out and setting: then `CN(CCc1cccs1)CC1CCCc2c1ccc(O)c2O` (stereo not drawn) [Example 87, 1-((N-Methylamino)methyl-N-(2-(2-thienyl)ethyl))-5,6-dihydroxy tetralin hydrochloride], with 444 nM; and `COc1cc2c(c(OC)c1)C(CN(C)CCc1cccs1)CCC2` (stereo not drawn) [Example 26, 1-((N Methylamino)methyl-N-(2-(2-thienyl)ethyl))6,8-dimethoxy tetralin hydrochloride], with 175 nM.
On to `CCN(CCc1cccc(F)c1)CC1CCCc2c1ccc1c2OCO1` (stereo not drawn) [Example 165, 1-((N-Ethylamino)methyl-N-(2-m-fluorophenethyl))-5,6-methylenedioxy tetralin hydrochloride], for which the Ki is 462 nM.
On to `CCN(CCc1cccs1)CC1CCCc2c1ccc1c2OCO1` (stereo not drawn) [Example 164, 1-(N Ethylamino)methyl-N-(2-(2-thienyl)ethyl))-5,6-methylenedioxy tetralin hydrochloride], for which the Ki stood at 954 nM.
For the compound `COc1ccc2c(c1)CCCC2CN(C)CCC1CCCC1` (stereo not drawn) [Example 6f, 1-((N methylamino)methyl -N-(2-(cyclopentyl)ethyl))-6-methoxy tetralin hydrochloride], the Ki is 2160 nM.
On to `CCN(CCc1cccs1)CC1CCCc2c1ccc1c2OCCO1` (stereo not drawn) [Example 168, 1-((N Ethylamino)methyl-N-(2-(2-thienyl)ethyl))-5,6-ethylenedioxy tetralin hydrochloride], for which the Ki came to 823 nM.
In the case of `CN(CCc1ccccc1)CC1CCCc2ccccc21` (stereo not drawn) [Example 88, 1-((N-Methylamino)methyl-N-(2-phenethyl))-tetralin hydrochloride], the Ki was found to be 315 nM.
In the case of `COc1ccc2c(c1)C(CN(C)CCc1cccs1)CCC2` (stereo not drawn) [Example 27, 1-((N-Methylamino)methyl-N (2-(2-thienyl)ethyl))7-methoxy tetralin hydrochloride], the inhibition constant Ki came to 525 nM.
On to `CCN(CCc1cccc(F)c1)CC1CCCc2cc(OC)ccc21` (stereo not drawn) [Example 42, 1-((N Ethylamino)methyl-N-(2-(m-fluorophenyl)ethyl))-6-methoxy tetralin hydrochloride], for which the Ki is 1050 nM.
For `Fc1ccccc1C1CCN(CC2CCCc3c2ccc2c3OCO2)C1` (stereo not drawn) [Example 176a, 5,6-Methylenedioxy-1-(3-(o-fluorophenyl)pyrrolidino-1-methyl) tetralin methanesulfonate], the Ki worked out at 79 nM.
In the case of `COc1cc2c(cc1F)C(CN(C)CCc1ccco1)CCC2` (stereo not drawn) [Example 141, 1-((N-methylamino)methyl-N-(2-(2-furyl)ethyl))-6-methoxy-7-fluoro tetralin methanesulfonate], the Ki is 880 nM.
On the same count and under the same terms, then `COc1ccc2c(c1)CCCC2CN(C)CCc1cccs1` (stereo not drawn) [Example 5, ((N-Methylamino)methyl-N-(2-(2-thienyl)ethyl)) 6-methoxy tetralin methanesulfonate], with 580 nM; and `CN(CCc1cccc(F)c1)CC1CCCc2c1ccc(O)c2O` (stereo not drawn) [Example 85, 1-((N-Methylamino)methyl-N-(2-(m-fluorophenyl)ethyl))-5,6-dihydroxy tetralin hydrochloride], with 260 nM; and `CN(CCc1ccccc1)CC1CCCc2cc(N)ccc21` (stereo not drawn) [Example 114, 1-((N-Methylaminomethyl-N-(2-phenylethyl))-6-aminotetralindihydrochloride], with 725 nM.
